Test results taken from ChEMBL document CHEMBL1201862, “PubChem BioAssay data set” (2004).
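Tested at 5 concentrations; 48 h exposure; 96-well plates; endpoints linearly interpolated, else capped at highest concentration. GI50 = concentration required for 50% inhibition of growth.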 Calls of active or inactive are those of the source. Cut-off read from the data, not from the text of the source: active = GI50 up to about 1.1 µM and inactive = higher.

Columns and labels:
Assay in all cases: NCI tumour cell line growth inhibition, 48 h
SK-OV-3 = system: SK-OV-3
MDA-MB-231 = system: MDA-MB-231
NCI-H460 = system: NCI-H460
BT-549 = system: BT-549
K562 = system: K562
OVCAR-3 = system: OVCAR-3
A549 = system: A549
OVCAR-5 = system: OVCAR-5
HCC 2998 = system: HCC 2998
UACC-257 = system: UACC-257
SF-268 = system: SF-268
SK-MEL-28 = system: SK-MEL-28
CAKI-1 = system: CAKI-1
786-0 = system: 786-0
SF-539 = system: SF-539
MDA-N = system: MDA-N
RXF 393 = system: RXF 393
SR = system: SR
NCI-H522 = system: NCI-H522
IGROV-1 = system: IGROV-1

Row | SMILES | GI50 (SK-OV-3) | GI50 (MDA-MB-231) | GI50 (NCI-H460) | GI50 (BT-549) | GI50 (K562) | GI50 (OVCAR-3) | GI50 (A549) | GI50 (OVCAR-5) | GI50 (HCC 2998) | GI50 (UACC-257) | GI50 (SF-268) | GI50 (SK-MEL-28) | GI50 (CAKI-1) | GI50 (786-0) | GI50 (SF-539) | GI50 (MDA-N) | GI50 (RXF 393) | GI50 (SR) | GI50 (NCI-H522) | GI50 (IGROV-1)
1 | O=[N+]([O-])C(/C(Cl)=C(/Cl)N1CCOCC1)=C1\Nc2ccccc2O1 | > 100 µM (inactive) | > 100 µM (inactive) | 12.7 µM (inactive) | > 100 µM (inactive) | > 100 µM (inactive) | 24.4 µM (inactive) | > 100 µM (inactive) | > 100 µM (inactive) | 16.1 µM (inactive) | 15 µM (inactive) | 28.9 µM (inactive) | > 100 µM (inactive) | > 100 µM (inactive) | > 100 µM (inactive) | > 100 µM (inactive) |  |  |  |  | 
2 | S=C=NC1CCC(c2cc3ccccc3s2)(N2CCCCC2)CC1 (configuration not stated) | 2.22 µM (inactive) |  | 1.87 µM (inactive) | 2.09 µM (inactive) | 0.0546 µM (active) | 2.09 µM (inactive) | 3.01 µM (inactive) | 1.75 µM (inactive) | 1.8 µM (inactive) | 1.73 µM (inactive) | 2.08 µM (inactive) | 1.6 µM (inactive) | 1.88 µM (inactive) | 1.78 µM (inactive) | 1.95 µM (inactive) | 1.77 µM (inactive) | 1.72 µM (inactive) | 0.071 µM (active) | 1.63 µM (inactive) | 
3 | COc1ccc(CSc2ccccc2Cn2cccc2)cc1OC | > 100 µM (inactive) |  | > 100 µM (inactive) | 46 µM (inactive) | 27 µM (inactive) | 16 µM (inactive) | 98.2 µM (inactive) | > 100 µM (inactive) | 56.6 µM (inactive) | 27.8 µM (inactive) | > 100 µM (inactive) | > 100 µM (inactive) | 93.1 µM (inactive) | > 100 µM (inactive) | > 100 µM (inactive) | > 100 µM (inactive) |  | 50.5 µM (inactive) |  | > 100 µM (inactive)
4 | CCC(C=O)P1(=O)OC(C)(C)CN1C(C)(C)C (configuration not stated) | 68.1 µM (inactive) | > 100 µM (inactive) | > 100 µM (inactive) | > 100 µM (inactive) | 77.8 µM (inactive) | 20.6 µM (inactive) | > 100 µM (inactive) | > 100 µM (inactive) | 76.7 µM (inactive) | > 100 µM (inactive) | 88.3 µM (inactive) |  | > 100 µM (inactive) | > 100 µM (inactive) | > 100 µM (inactive) |  |  | > 100 µM (inactive) |  | > 100 µM (inactive)
5 | COC(=O)C(CCSC)NC(=O)CNC(=O)CSc1nnc(COc2ccc(Cl)cc2)n1-c1ccccc1 (configuration not stated) | 18.1 µM (inactive) | 16 µM (inactive) | 17.5 µM (inactive) | 16.9 µM (inactive) | 26.5 µM (inactive) |  | 41.3 µM (inactive) | 19 µM (inactive) | 14 µM (inactive) | 18.3 µM (inactive) | 17.1 µM (inactive) | 17.5 µM (inactive) |  | 16 µM (inactive) | 18.7 µM (inactive) | 18.6 µM (inactive) | 18.6 µM (inactive) |  |  | 16.6 µM (inactive)
6 | Oc1cccc(/C=N/N=c2/[nH][nH]/c(=N/N=C/c3cccc(O)c3)c3ccccc23)c1 | 29.3 µM (inactive) | 7.89 µM (inactive) | 21.4 µM (inactive) | 18.5 µM (inactive) | 18.3 µM (inactive) | 13.9 µM (inactive) | 21.4 µM (inactive) | 40.1 µM (inactive) |  | 29.9 µM (inactive) | 26.6 µM (inactive) | 21.8 µM (inactive) | 29.1 µM (inactive) | 13.7 µM (inactive) | 16.9 µM (inactive) |  | 49.2 µM (inactive) | 2.55 µM (inactive) | 17.3 µM (inactive) | 11.6 µM (inactive)
7 | c1ccc(C2OCC(OC3CCCCO3)CO2)cc1 (configuration not stated) | > 100 µM (inactive) | > 100 µM (inactive) | > 100 µM (inactive) | > 100 µM (inactive) | > 100 µM (inactive) | > 100 µM (inactive) | > 100 µM (inactive) | > 100 µM (inactive) | > 100 µM (inactive) | > 100 µM (inactive) | > 100 µM (inactive) | > 100 µM (inactive) | > 100 µM (inactive) | > 100 µM (inactive) | > 100 µM (inactive) | > 100 µM (inactive) |  | > 100 µM (inactive) | > 100 µM (inactive) | > 100 µM (inactive)
8 | COC(=O)Cc1ccc2c(c1)Sc1ccc(CC(=O)OC)cc1N2C | 38.3 µM (inactive) | 13.4 µM (inactive) | 33.1 µM (inactive) | 16.1 µM (inactive) | 6.75 µM (inactive) | 23.3 µM (inactive) | 24 µM (inactive) | > 65.5 µM (inactive) | 54 µM (inactive) | 30.5 µM (inactive) | 38.3 µM (inactive) | 38.3 µM (inactive) | 11.6 µM (inactive) | 25.5 µM (inactive) | 36.3 µM (inactive) |  | 25.1 µM (inactive) | 14.4 µM (inactive) | 9.75 µM (inactive) | 45.8 µM (inactive)
9 | O=c1oc2c(Cl)cc(Cl)cc2cc1C1=CSC2=NCCN12 | > 100 µM (inactive) | 28.9 µM (inactive) | 57.5 µM (inactive) | 26 µM (inactive) | 34.4 µM (inactive) | 26.7 µM (inactive) | 64.3 µM (inactive) | > 100 µM (inactive) |  | > 100 µM (inactive) |  | 47.1 µM (inactive) | 52.2 µM (inactive) | 40.8 µM (inactive) | > 100 µM (inactive) | 36.2 µM (inactive) | 34.2 µM (inactive) | 40.6 µM (inactive) |  | 48.8 µM (inactive)
10 | CC(C(=O)O)/C(=C\c1ccc2c(c1)OCO2)C(=O)O (configuration not stated) | > 100 µM (inactive) | > 100 µM (inactive) | > 100 µM (inactive) | > 100 µM (inactive) | > 92.5 µM (inactive) | > 100 µM (inactive) | > 100 µM (inactive) | > 10 µM (inactive) | > 100 µM (inactive) | > 100 µM (inactive) | > 100 µM (inactive) | > 100 µM (inactive) | > 100 µM (inactive) | > 100 µM (inactive) | > 100 µM (inactive) | > 100 µM (inactive) | > 100 µM (inactive) |  | > 100 µM (inactive) | > 100 µM (inactive)
11 | CN(C)C(=S)N/N=C\C=N/NC(=S)N(C)C | 0.344 µM (active) | > 100 µM (inactive) | 0.0231 µM (active) | > 100 µM (inactive) | 23.9 µM (inactive) | 0.0295 µM (active) | 0.0918 µM (active) | 31.8 µM (inactive) |  | 2.64 µM (inactive) | 0.112 µM (active) | 0.552 µM (active) | 0.447 µM (active) | 0.209 µM (active) | 6.97 µM (inactive) | 3.29 µM (inactive) | 0.277 µM (active) |  | 0.22 µM (active) | 0.47 µM (active)
12 | CCN(CC)CCO/N=C1/C=C2CCC3C(CC[C@@]4(C)C3CC[C@]4(C)O)[C@@]2(C)CC1 (some centres not stated) | 14.3 µM (inactive) | 14.1 µM (inactive) | 3.41 µM (inactive) | 11.7 µM (inactive) | 4.48 µM (inactive) | 2.8 µM (inactive) | 7.36 µM (inactive) | 16.5 µM (inactive) | 5.22 µM (inactive) | 4.9 µM (inactive) | 8.09 µM (inactive) |  | 4.52 µM (inactive) | 3.69 µM (inactive) | 3.18 µM (inactive) | 2.49 µM (inactive) | 15.5 µM (inactive) |  | 2.16 µM (inactive) | 4.8 µM (inactive)
13 | N#CC(c1nc2ccccc2s1)c1ncnc(Cl)c1[N+](=O)[O-] (configuration not stated) | 37.8 µM (inactive) | 30.8 µM (inactive) | 20.3 µM (inactive) | 22.9 µM (inactive) |  | 20.1 µM (inactive) | 36.3 µM (inactive) | 24.3 µM (inactive) |  | 20.6 µM (inactive) | 17.5 µM (inactive) | 19.9 µM (inactive) | 25.2 µM (inactive) | 20.1 µM (inactive) | 30.3 µM (inactive) | 18.2 µM (inactive) | 25.5 µM (inactive) |  | 18.9 µM (inactive) | 14.6 µM (inactive)
14 | COc1cc(-c2c3c(cc4c2OCO4)[C@@H](Nc2ccc4c(c2)Cc2cc(N[C@@H]5c6cc7c(cc6C(c6cc(OC)c(O)c(OC)c6)[C@H]6C(=O)OC[C@H]56)OCO7)ccc2-4)[C@H]2COC(=O)[C@@H]2C3)cc(OC)c1O (some centres not stated) | 14.8 µM (inactive) | 21 µM (inactive) | 17.3 µM (inactive) | 35.1 µM (inactive) |  | 55.5 µM (inactive) | 47.2 µM (inactive) | 27.8 µM (inactive) |  | 48.8 µM (inactive) | 51.2 µM (inactive) | 15.5 µM (inactive) | 23.4 µM (inactive) | 18.5 µM (inactive) | 0.977 µM (active) | 13.3 µM (inactive) |  | 11.6 µM (inactive) |  | 1.56 µM (inactive)
15 | COc1cc(C2c3cc4c(cc3[C@@H](Nc3ccc5c(c3)OCCO5)C3COC(=O)[C@H]23)OCO4)cc(OC)c1O (some centres not stated) | 1.58 µM (inactive) | 16.4 µM (inactive) | 0.0156 µM (active) | 3.9 µM (inactive) | 0.413 µM (active) | 0.959 µM (active) | 0.104 µM (active) | 2.22 µM (inactive) | 1.1 µM (active) | 2.57 µM (inactive) | 0.771 µM (active) | 2.05 µM (inactive) | 0.113 µM (active) | 0.199 µM (active) | 0.435 µM (active) |  | 0.453 µM (active) | < 0.0364 µM (active) | 0.301 µM (active) | 0.906 µM (active)
